From patent publication US20170291905A1, “ARGININE […] INHIBITORS AND USES THEREOF” (Epizyme, Inc., priority 2014, published 2017) come the findings set out here.

Where a name gives a salt, the structure may show the parent alone.

The target in this assay is T1, PRMT1 (Homo sapiens, UniProt Q99873).
T1 construct: host or cells: RKO cells
T1 sequence (Q99873 whole entry): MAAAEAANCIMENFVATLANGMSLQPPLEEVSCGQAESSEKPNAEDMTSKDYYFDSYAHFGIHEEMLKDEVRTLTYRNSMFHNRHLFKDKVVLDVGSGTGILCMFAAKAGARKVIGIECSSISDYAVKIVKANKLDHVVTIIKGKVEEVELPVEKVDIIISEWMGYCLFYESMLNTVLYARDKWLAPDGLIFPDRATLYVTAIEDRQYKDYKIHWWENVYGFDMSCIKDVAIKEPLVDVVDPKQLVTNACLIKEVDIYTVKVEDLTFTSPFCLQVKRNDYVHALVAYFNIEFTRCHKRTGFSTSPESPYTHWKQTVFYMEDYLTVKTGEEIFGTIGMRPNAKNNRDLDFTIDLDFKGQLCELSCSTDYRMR
Briefly: RKO methylation assay, In Cell Western (ICW) for mono-methyl arginine and DNA content. In kind it is cell-based. To be noted: RKO cells, 72 hours, mono-methyl arginine signal normalised to DRAQ5, percent activation. An excerpt: RKO Methylation Assay RKO adherent cells were purchased from ATCC (American Type Culture Collection), Manassas, Va., USA. DMEM/Glutamax medium, penicillin-streptomycin, heat inactivated fetal bovine serum, 0.05% trypsin and D-PBS were purchased from Life Technologies, Grand Island, N.Y., USA. Odyssey blocking buffer, 800CW goat anti-rabbit IgG (H+L) antibody, and Licor Odyssey infrared scanner were purchased from Licor Biosciences, Lincoln, Nebr., USA. Mono-methyl arginine antibody was purchased from Cell Signaling Technology, Danvers, Mass., USA. Methanol was purchased from VWR, Franklin, Mass., USA. 10% Tween 20 was purchased from KPL, Inc., Gaithersburg, Md., USA. DRAQ5 was purchased from Biostatus Limited, Leicestershire, UK. RKO adherent cells were maintained in growth medium (DMEM/Glutamax medium supplemented with 10% v/v heat inactivated fetal bovine serum and 100 units/mL penicillin-streptomycin) and cultured at 37° C. under 5% CO2. Cell Treatment, in Cell Western (ICW) for Detection of Mono-Methyl Arginine and DNA Content. RKO cells were seeded in assay medium at a concentration of 20,000 cells per mL to a poly-D-lysine coated 384 well culture plate (BD Biosciences 356697) with 50 μL per well. Compound (100 nL) from a 96-well source plate was added directly to 384 well cell plate. Plates were incubated at 37° C., 5% CO2 for 72 hours. After three days of incubation, plates were brought to room temperature outside of the incubator for ten minutes and blotted on paper towels to remove cell media. 50 μL of ice cold 100% methanol was added directly to each well and incubated for 30 min at room temperature. After 30 min, plates were transferred to a Biotek EL406 plate washer and washed 2 times with 100 μL per well of wash buffer (1×PBS). Next 60 μL per well of Odyssey blocking buffer (Odyssey Buffer with 0.1% Tween 20 (v/v)) were added to each plate and incubated 1 hour at room temperature. Blocking buffer was removed and 20 μL per well of primary antibody was added (mono-methyl arginine diluted 1:200 in Odyssey buffer with 0.1% Tween 20 (v/v)) and plates were incubated overnight (16 hours) at 4° C. Plates were washed 5 times with 100 μL per well of wash buffer. Next 20 μL per well of secondary antibody was added (1:200 800CW goat anti-rabbit IgG (H+L) antibody, 1:1000 DRAQ5 (Biostatus limited) in Odyssey buffer with 0.1% Tween 20 (v/v)) and incubated for 1 hour at room temperature. The plates were washed 5 times with 100 μL per well wash buffer then 2 times with 100 μL per well of water. Plates were allowed to dry at room temperature then imaged on the Licor Odyssey machine which measures integrated intensity at 700 nm and 800 nm wavelengths. Both 700 and 800 channels were scanned. […] Each plate included fourteen control wells of DMSO only treatment (minimum activation) as well as fourteen control wells for maximum activation treated with 20 μM of a reference compound. The average of the ratio values for each control type was calculated and used to determine the percent activation for each test well in the plate. Reference compound was serially diluted three-fold in DMSO for a total of nine test concentrations, beginning at 20 μM. Percent activation was determined and EC30 curves were generated using triplicate wells per concentration of compound.
As for `CNCCN(C)Cc1scnc1[C@H]1CC[C@@]2(CC1)CC(C)(C)CO2` [compound 62], the “PRMT1 RGG ICW EC30” value was 6.96 nM. For the compound `CCC1(CC)CC2(CCC(c3n[nH]cc3CN(C)CCNC)CC2)N(C)C1=O` (centres unmarked) [compound 22, 3,3-diethyl-1-methyl-8-(4-((methyl(2-(methylamino)ethyl)amino)methyl)-1H-pyrazol-3-yl)-1-azaspiro[4.5]decan-2-one], the “PRMT1 RGG ICW EC30” value worked out at 1835 nM. On to `CNCCN(C)Cc1nn(C)cc1[C@H]1CC[C@@]2(CC1)CC(C)(C)CO2` [compound 81], for which the “PRMT1 RGG ICW EC30” value is 95.94 nM. With `CNCCN(C)Cc1c[nH]nc1C1C[C@H](C(=O)NCCOC)C(C)(C)[C@H](C(=O)NCCOC)C1` (some centres unmarked) [compound 13], the “PRMT1 RGG ICW EC30” value was over 5000 nM. On to `CNCCN(C)Cc1nocc1[C@H]1CC[C@@]2(CC1)CC(C)(C)CO2` [compound 117], for which the “PRMT1 RGG ICW EC30” value was determined as 863.2 nM. The figure for `CNCCN(C)Cc1c[nH]nc1[C@@H]1CC[C@@H](OCCCOC)C2(CCCC2)C1` (racemic) [compound 26, N1-((3-((7R,10R)-10-(3-methoxypropoxy)spiro[4.5]decan-7-yl)-1H-pyrazol-4-yl)methyl)-N1,N2-dimethylethane-1,2-diamine] is 217.2 nM; for `CCOCC1(COCC)CCC(c2nn(C)cc2CN(C)CCN)CC1` [compound 124] it is 55.87 nM. On to `CC[C@]12CC[C@](CC)(C[C@@H](c3n[nH]cc3CN(C)CCNC)C1)O2` [compound 38, N1-((3-((1R,3s,5S)-1,5-diethyl-8-oxabicyclo[3.2.1]octan-3-yl)-1H-pyrazol-4-yl)methyl)-N1,N2-dimethylethane-1,2-diamine], for which the “PRMT1 RGG ICW EC30” value was over 5000 nM. Take `CCOCC1(COCC)CCC(c2n[nH]cc2CN(C)CCN)CC1` [compound 123]: the “PRMT1 RGG ICW EC30” value was 17.8 nM. With `CNCCN(C)Cc1nn[nH]c1[C@H]1CC[C@]2(CC1)CC(C)(C)CO2` [compound 89], the “PRMT1 RGG ICW EC30” value worked out at 760.4 nM. Take `CNCCN(C)Cc1nn(C)nc1[C@H]1CC[C@@]2(CC1)CC(C)(C)CO2` [compound 64]: the “PRMT1 RGG ICW EC30” value came to 119 nM. Take `CNCCN(C)Cc1c[nH]nc1C1=CCC(CF)(CF)CC1` [compound 15, N-((3-(4,4-bis(fluoromethyl)cyclohex-1-en-1-yl)-1H-pyrazol-4-yl)methyl)-N1,N2-dimethylethane-1,2-diamine]: the “PRMT1 RGG ICW EC30” value was 361.1 nM. On to `CN(CCN)Cc1c[nH]nc1[C@H]1CC[C@@]2(CC1)CC(C)(C)CO2` [compound 105], for which the “PRMT1 RGG ICW EC30” value was found to be 12.12 nM. As to `CNCCN(C)Cc1c[nH]nc1[C@@H]1CC[C@H](OCCCOC)C2(CCCC2)C1` (racemic) [compound 27, N1-((3-((7R,10S)-10-(3-methoxypropoxy)spiro[4.5]decan-7-yl)-1H-pyrazol-4-yl)methyl)-N1,N2-dimethylethane-1,2-diamine], the “PRMT1 RGG ICW EC30” value came to 216.4 nM. Consider `CN(CCN)Cc1nn(C)cc1[C@H]1CC[C@]2(CC1)CC(C)(C)CO2` [compound 102], for which the “PRMT1 RGG ICW EC30” value was found to be 446.7 nM.

Take `CNCCN(C)Cc1c[nH]nc1C1=CCC(COCC(F)(F)F)CC1` (centres unmarked) [compound 16, N1,N2-dimethyl-N1-((3-(4-((2,2,2-trifluoroethoxy)methyl)cyclohex-1-en-1-yl)-1H-pyrazol-4-yl)methyl)ethane-1,2-diamine]: the “PRMT1 RGG ICW EC30” value amounted to 839.3 nM. The figure for `CNCCN(C)Cc1nc(C)sc1[C@H]1CC[C@]2(CC1)CC(C)(C)CO2` [compound 99] is 95.53 nM; for `CCC1CC(c2n[nH]cc2CN(C)CCNC)CC(C(=O)NCCOC)C1(C)C` (centres unmarked) [compound 21, 3-ethyl-N-(2-methoxyethyl)-2,2-dimethyl-5-[4-([methyl[2-(methylamino)ethyl]amino]methyl)-1H-pyrazol-3-yl]cyclohexane-1-carboxamide dihydrochloride] it is over 5000 nM.

Consider `CNCCN(C)Cc1nc(C)sc1[C@H]1CC[C@@]2(CC1)CC(C)(C)CO2` [compound 77], for which the “PRMT1 RGG ICW EC30” value was found to be 53.11 nM. Consider `CCC1(CC)C[C@]2(CC[C@H](c3n[nH]cc3CN(C)CCNC)CC2)OC1=O` [compound 33, (5s,8s)-3,3-diethyl-8-(4-((methyl(2-(methylamino)ethyl)amino)methyl)-1H-pyrazol-3-yl)-1-oxaspiro[4.5]decan-2-one], for which the “PRMT1 RGG ICW EC30” value stood at 40.81 nM. On to `CCN(C)C(=O)C1CC(c2n[nH]cc2CN(C)CCNC)CC(C(=O)NCCC(C)C)C1(C)C` (centres unmarked) [compound 14, N1-ethyl-N3-isopentyl-N1,2,2-trimethyl-5-(4-((methyl(2-(methylamino)ethyl)amino)methyl)-1H-pyrazol-3-yl)cyclohexane-1,3-dicarboxamide], for which the “PRMT1 RGG ICW EC30” value was over 5000 nM. With `CNCCN(C)Cc1scnc1[C@H]1CC[C@]2(CC1)CC(C)(C)CO2` [compound 84], the “PRMT1 RGG ICW EC30” value is 54.69 nM. As to `CNCCN(C)Cc1c[nH]nc1C1CCC(C)(C)[C@H](CO)C1` (stereo partly drawn) [compound 32, [(1R)-2,2-dimethyl-5-[4-({methyl[2-(methylamino)ethyl]amino}methyl)-1H-pyrazol-3-yl]cyclohexyl]methanol], the “PRMT1 RGG ICW EC30” value is 517.9 nM. To `CCOCC1(COCC)CC=C(c2n[nH]cc2CN(C)CCNC)CC1` [compound 60] belongs 44.67 nM; to `CCCOCC1(COCCC)CCC(c2n[nH]cc2CN(C)CCNC)CC1` [compound 36, N^1-((3-(4,4-bis(propoxymethyl)cyclohexyl)-1H-pyrazol-4-yl)methyl)-N^1,N^2-dimethylethane-1,2-diamine], 66.17 nM; to `CCOCC1(COCC)CCC(c2nn(C)cc2CN(C)CCNC)CC1` [compound 122], 22.11 nM. In the case of `CNCCN(C)Cc1c[nH]nc1[C@H]1CC[C@]2(CCCCO2)CC1` [compound 127, methyl([2-[methyl([3-[(6s,9r)-1-oxaspiro[5.5]undecan-9-yl]-1H-pyrazol-4-yl]methyl)amino]ethyl])amine bistrifluoroacetic acid salt], the “PRMT1 RGG ICW EC30” value worked out at 8.48 nM. As to `CNCCN(C)Cc1c[nH]nc1C1CCC(OCCCOC)C2(CCCC2)C1` (mixture of isomers) [compound 19, N1-((3-(10-(3-methoxypropoxy)spiro[4.5]decan-7-yl)-1H-pyrazol-4-yl)methyl)-N1,N2-dimethylethane-1,2-diamine dihydrochloride], the “PRMT1 RGG ICW EC30” value is 440.3 nM.

Consider `CN(CCN)Cc1nn(C)cc1[C@H]1CC[C@@]2(CC1)CC(C)(C)CO2` [compound 80], for which the “PRMT1 RGG ICW EC30” value is 61.59 nM.

Consider `CNCCN(C)Cc1c[nH]nc1[C@H]1CC[C@]2(CCCOC2)CC1` [compound 4, N1-((3-((6s,9s)-2-oxaspiro[5.5]undecan-9-yl)-1H-pyrazol-4-yl)methyl)-N1,N2-dimethylethane-1,2-diamine], for which the “PRMT1 RGG ICW EC30” value amounted to 18.34 nM. The figure for `CNCCN(C)Cc1c[nH]nc1C1C[C@@H](C(=O)N(C)CC(C)C)C(C)(C)[C@H](C(=O)N(C)CC(C)C)C1` (some centres unmarked) [compound 12] is over 5000 nM; for `CNCCN(C)Cc1nn(C)nc1C1CCC2(CC1)CC(C)(C)CO2` (centres unmarked) [compound 86] it is 443.6 nM; for `CC[C@]12CC[C@](CC)(C[C@H](c3n[nH]cc3CN(C)CCNC)C1)O2` [compound 37, N1-((3-((1R,3r,5S)-1,5-diethyl-8-oxabicyclo[3.2.1]octan-3-yl)-1H-pyrazol-4-yl)methyl)-N1,N2-dimethylethane-1,2-diamine] it is 245.5 nM. `CNCCN(C)Cc1c[nH]nc1[C@H]1CC[C@@]2(CCCCO2)CC1` [compound 3]: the “PRMT1 RGG ICW EC30” value was determined as 114.7 nM. With `CNCCN(C)Cc1c[nH]nc1[C@H]1CC[C@@H](COCC(F)(F)F)CC1` [compound 23, N1,N2-dimethyl-N1-((3-((1s,4s)-4-((2,2,2-trifluoroethoxy)methyl)cyclohexyl)-1H-pyrazol-4-yl)methyl)ethane-1,2-diamine], the “PRMT1 RGG ICW EC30” value was found to be 1721 nM.
